Data as given in patent US20250051279A1, “TRYPTAMINE COMPOSITIONS AND METHODS” (priority 2022, published 2025).

Tests used:
[1] = oral; cited from earlier work
[2] = Salt form assessment (crystallization propensity, DSC/XRPD physical properties, appearance, counter-ion acceptability, salt suitability); assay type: physicochemical; design: key: “+/+/+” indicates most favorable; “+/+” indicates more favorable; “+” indicates favorable; “−” indicates unfavorable; “−/−” indicates more unfavorable; “−/−/−” indicates most unfavorable; details: for Physical properties (crystallinity, melt, enthalpy, polymorph tendency): DSC, XRPD; for Crystallization propensity: crystallization from ethanol
Description: Samples were analyzed by differential scanning calorimetry (DSC), X-ray powder diffraction (XRPD), and dynamic vapor sorption (DVS). In addition, the appearance and visual properties of each sample were assessed, in addition to propensity for crystallization.
A summary of the data obtained from the analyses of the individual salt forms of Examples 1-9 are presented in Table 10, with advantageous and detrimental properties summarized using the following nomenclature: “+/+/+” indicates most favorable; “+/+” indicates more favorable; “+” indicates favorable; “−” indicates unfavorable; “−/−” indicates more unfavorable; “−/−/−” indicates most unfavorable.

[3] = Dynamic vapor sorption (DVS) hygroscopicity; assay type: physicochemical; design: key to Hygroscopicity: “+/+/+” indicates most favorable; “+/+” indicates more favorable; “+” indicates favorable; “−” indicates unfavorable; “−/−” indicates more unfavorable; “−/−/−” indicates most unfavorable; details: for physical form conversion throughout the DVS cycle: DVS cycle 0-95% RH; for hygroscopicity (in words): DVS isotherm; for acquisition of water on exposure to elevated relative humidities: >95% RH
Excerpt: Pharmaceutically acceptable salts of the compound of Formula (I) suitable for pharmaceutical manufacture may also be characterized as non-hygroscopic or slightly hygroscopic, preferably non-hygroscopic. The hygroscopicity may be measured herein by performing a moisture adsorption-desorption isotherm using a dynamic vapor sorption (DVS) analyzer with a starting exposure of 30% relative humidity (RH), increasing humidity up to 95% RH, decreasing humidity to 0%, and finally increasing the humidity back to the starting 30% RH, and classified according to the following: • non-hygroscopic: <0.2%; slightly hygroscopic: ≥0.2% and <2%; hygroscopic: ≥2% and <15%; very hygroscopic: ≥15%; deliquescent: sufficient water is absorbed to form a liquid; all values measured as weight increase (w/w due to acquisition of water) at >95% RH and 25° C.
Dynamic vapor sorption-desorption experiments were carried out using a DVS Resolution instrument supplied by Surface Measurement Systems. Data were acquired using the following acquisition parameters: • Solvent; Water • Start relative humidity; 30% RH • Relative humidity cycle (% RH); 30, 40, 50, 60, 70, 80, 90, 95, 90, 80, 70, 60, 50, 40, 30, 20, 10, 0, 10, 20, 30 • Equilibrium condition (dm/dt); 0.002%/minute • Equilibrium condition window; 10 minutes • Minimum stage period; 5 minutes • Maximum stage period; 360 minutes • Temperature; 25° C. • Carrier gas; Nitrogen • Carrier gas flow rate; 200 mL·min^−1 (Total)
Typically, 20-50 mg of the test substance was mounted in a gauze basket and transferred to the sample port. Excess static electricity was removed throughout sample handling and sample mounting using a ^210Po static eliminator. Instrument performance checks were completed using traceable samples of sodium chloride and lithium chloride. For selected samples, the cycle was repeated using the same sample to assess any change in physical form induced on exposure to elevated relative humidity.

[4] = prolonged storage; cited from earlier work

SMILES | orally active dose (lowest) [1] [µg] | very strong psychedelic doses [1] [µg] | Appearance [2] | Physical properties (crystallinity, melt, enthalpy, polymorph tendency) [2] | Crystallization propensity [2] | Hygroscopicity ([3]; DVS) | physical form conversion throughout the DVS cycle [3] | hygroscopicity (in words) [3] | acquisition of water on exposure to elevated relative humidities ([3]; DVS, 25° C.) [% w/w] | water uptake ([3]; DVS, 25° C., on exposure to 95% RH) | behavior at elevated relative humidities ([3]; DVS) | water uptake at relative humidities exceeding 80% ([3]; DVS, >80% RH) | equilibrium water content ([3]; DVS, typical ambient relative humidities) [%] | storage sensitivity [4]
COc1cc(CCNCc2ccccc2OC)c(OC)cc1Cl [2C—C-NBOMe, 2-(4-Chloro-2,5-dimethoxyphenyl)-N-[(2-methoxyphenyl)methyl]ethan-1-amine] | ≥ 25 | 500 to 700 |  |  |  |  |  |  |  |  |  |  |  | 
CN(C)CCc1c[nH]c2ccccc12 [Example 1, 2-(1H-indol-3-yl)-N,N-dimethylethan-1-amine] |  |  | +/+/+ | +/+/+ | +/+/+ | +/+/+ | no evidence of physical form conversion | no significant hygroscopicity | < 0.2 |  |  |  |  | 
CN(C)CCc1c[nH]c2ccccc12 [Example 2, 2-(1H-indol-3-yl)-N,N-dimethylethan-1-amine] |  |  | +/+/+ | +/+/+ | +/+/+ | +/+/+ | no evidence of physical form conversion | no significant hygroscopicity | < 0.05 |  |  |  |  | 
CN(C)CCc1c[nH]c2ccccc12 [Example 3, 2-(1H-indol-3-yl)-N,N-dimethylethan-1-amine] |  |  | +/+/+ | +/+/+ | + | +/+/+ | no evidence of physical form conversion | no significant hygroscopicity | < 0.06 |  |  |  |  | 
CN(C)CCc1c[nH]c2ccccc12 [Example 4, 2-(1H-indol-3-yl)-N,N-dimethylethan-1-amine] |  |  | +/+/+ | +/+/+ | − | +/+/+ | no evidence of physical form conversion | no significant hygroscopicity | < 0.5 |  |  |  |  | 
CN(C)CCc1c[nH]c2ccccc12 [Example 5, 2-(1H-indol-3-yl)-N,N-dimethylethan-1-amine] |  |  | +/+ | +/+ | + | − |  |  |  | approximately 3 % w/w |  |  |  | 
CN(C)CCc1c[nH]c2ccccc12 [Example 6, 2-(1H-indol-3-yl)-N,N-dimethylethan-1-amine] |  |  | +/+/+ | +/+ | − | −/−/− |  |  |  |  | deliquesce |  |  | 
CN(C)CCc1c[nH]c2ccccc12 [Example 7, 2-(1H-indol-3-yl)-N,N-dimethylethan-1-amine] |  |  | − | −/− | − | −/−/− | a phase change was induced |  |  |  |  | excessive | > 3 | 
CN(C)CCc1c[nH]c2ccccc12 [Example 8, 2-(1H-indol-3-yl)-N,N-dimethylethan-1-amine] |  |  | − | −/− | − | −/−/− |  |  |  |  | deliquesce |  |  | 
CN(C)CCc1c[nH]c2ccccc12 [Example 9, 2-(1H-indol-3-yl)-N,N-dimethylethan-1-amine] |  |  | − | −/− | − | −/−/− |  |  |  |  |  |  |  | 
CN(C)CCc1c[nH]c2ccccc12 [Example I-1, 2-(1H-indol-3-yl)-N,N-dimethylethan-1-amine] |  |  |  |  |  |  |  |  |  |  |  |  |  | sensitive to oxygen, heat, and light
